According to US11118160B2, “Probiotic composition for enhancing an insects resistance to a pesticide” (The Regents of the University of California, priority 2017, dated 2021):

Columns and labels:
Drosophila melanogaster [1] = test: Fly behavioral phenotype after pesticide exposure; type: in vivo; settings: exposed flies
Excerpt: 1D) Automated behavioral screening in 2D population cages with social affinity, aggression, and mating behavioral quantitative phenotypes. These are ideal because they integrate many aspects of the perturbed animal system, and will allow one skilled in the art to identify subtle neurological phenotypes may be missed by other modalities.
Fly behavioral studies: A 2D cage design with CCD video and fly tracking software is utilized widely by the community (19270697). This techniques enables the automated quantification of social affinity, aggression, and mating behavioral phenotypes.

Drosophila melanogaster [2] = test: Host genome-wide transcription response to chronic pesticide exposure (FIGS. 4-5); type: in vivo; settings: 2 mM atrazine
Excerpt: 1C) 16S-seq and microarray of microbiome before and after perturbation to quantify all microbial species and their transcriptomes. For treatments with strong effects, sequence the fly gut transcriptome (RNA-seq) to determine gene networks and pathways affected by exposure.

Drosophila melanogaster [3] = test: Survival of wild-type and gnotobiotic / germ free flies exposed to atrazine (FIGS. 5-6); type: in vivo
Procedure: (§1) The immediate and long-term responses of the gut microbiome to the top ten most utilized herbicides in the United States are measured using the model organism Drosophila melanogaster. By utilizing both gnotobiotic and wild-type flies in these perturbations, effects specifically due to the microbiome are isolated. Based on the results of the fly model, compounds are tested in mice in pre-adolescent exposure scenarios and long-term effects. As in the fly, genomic and metabolomics techniques are used. Detailed, life course assays throughout 12-week span would provide an extensive map of the dynamic composition of mammalian gut microbiomes. Identification of microbiome chemical and genetic interactions are obtained by utilizing the collaborative cross mice and also specified microbial compositions. Pesticide-induced changes in behavior are correlated with changes in the microbiome, while controlling for genetic background.
Axenic adult flies are generated and exposures are recapitulated. […] Further, GF flies are fully rescued and wild-type survival curves are restored by feeding flies the bacterial culture prior to exposure. Similar rescue experiments with other microbes are attempted, none of which are rescued.

[4] = system: Acetobacter in the insect gut; test: Remodeling of the gut microbiome in response to pesticide exposure (FIG. 1); type: in vivo, Drosophila melanogaster; settings: exposure of flies
Procedure: as §1
AIM 1 Screen 20 most commonly used agricultural pesticides in the United States. Determine which pesticides impact microbiome composition in adult flies, leveraging the viability of germ-free animals and rapid life cycle. Measure the immediate (2 hrs) and long-term (10 days) responses of the microbiome to exposure using methods described below.
1C) 16S-seq and microarray of microbiome before and after perturbation to quantify all microbial species and their transcriptomes. […]

| SMILES | behavioral phenotype induced (Drosophila melanogaster [1]) | host response to exposure (transcription) (Drosophila melanogaster [2]) | survival of exposed germ free (GF) flies vs control flies with wild-type microbiomes (Drosophila melanogaster [3]; axenic adult flies) | lethality to the host (Drosophila melanogaster [3]; flies, extremely high doses) | susceptibility to toxicity, gnotobiotic flies lacking the atrazine metabolism pathway vs wild-type strains (Drosophila melanogaster [3]; gnotobiotic flies vs wild-type strains having the pathway) | effect on Acetobacter in the insect gut [4] |
| --- | --- | --- | --- | --- | --- | --- |
| CCNc1nc(Cl)nc(NC(C)C)n1 [Atrazine, atrazine] | induces a hyperactive phenotype | induces an adaptive response associated largely with the transport of lipids | die earlier than control flies | not deadly at extremely high doses | significantly more susceptible to toxicity | induce the collapse of Acetobacter |
| C[n+]1ccc(-c2cc[n+](C)cc2)cc1 [Paraquat, paraquat] |  |  |  |  |  | induce the collapse of Acetobacter |
